Tests used:
[1] = system: non-cancer lung cell strain MRC-9; experiment: Cell growth inhibition in non-cancer lung cells; type: cell-based; settings: MRC-9 non-cancer lung cells
[2] = system: non-small cell lung cancer cells H460; experiment: Sub-G1 phase cell number, propidium iodide flow cytometry; type: cell-based, human; settings: 50 μM, 48 hours
Experimental: (§1) After incubation of the non-small cell lung cancer cells A549 and H460 treated with 50 μM of the compound PB01 or PB11 of Examples ?5 and 3 for 48 hours, the non-small cell lung cancer cells A549 and H460 were collected and floated with a 1×PBS (pH 7.4), followed by fixing at about −20° C. with a 70% cold ethanol, washing twice with a 1×PBS, and then staining with 10 μg/mL of propidium iodide (including 0.5% of PI, Tween-20, 100 μg/mL of 0.1% RNase) at room temperature for about 30 minutes. The stained cells were analyzed by flow cytometry with a FACScan™ (available from Becton Dicknson).

[3] = system: non-small cell lung cancer cells A549; experiment: as above; type: cell-based, human; settings: 50 μM, 48 hours
Experimental: as §1

[4] = system: non-cancer lung cell strain MRC-5; experiment: Cell growth inhibition in non-cancer lung cells; type: cell-based; settings: MRC-5 non-cancer lung cells
[5] = system: non-small cell lung cancer cell strain A549; experiment: Cancer cell growth inhibition, WST-1 cell viability; type: cell-based, human; settings: compared among cell strains
Experimental: (§2) Cancer cell growth inhibitory effects of the compounds PB01 and PB11 of Examples 5 and 3 identified as PPAR-γ ligands were evaluated. Growth inhibitory effects of the compounds PB01 and PB11 of Examples 5 and 3 on various cancer cells, including human non-small cell lung cancer cell strains (A549, H460), breast cancer cell strains (MCF-7, T-470), colorectal cancer cell strains (LoVo, SW480), and leukocytes cancer cell strains (HL-60, K562) (American Type Culture Collection, Manassas, Va.), were evaluated using WST-1 method. About 5×10^3 cells per well of each type of cancer cell strains were portioned into a 96-well plate, and incubated with different concentrations of each of the compounds PB01 and PB11 of Examples 5 and 3 in 200 ul of a culture solution for 24 hours, 48 hours, and 72 hours. After the incubation for the different durations, 10 ul of a WST-1 solution was added to each well, followed by incubation at about 37° C. for about 1 hour. Absorbance at 450 nm was measured to determine cell viability.

[6] = system: various cancer cell strains (A549, H460, MCF-7, T-470, LoVo, SW480, HL-60, K562); experiment: as above; type: cell-based, human; settings: for selectivity of cell growth inhibitory effect, cancer versus non-cancer cell strains: cancer cell strains vs MRC-5 and MRC-9; for growth inhibitory effects on various cancer cell strains: concentration of 50 μM, WST-1
Experimental: as §2

[7] = system: non-small cell lung cancer cell strain H460; experiment: as above; type: cell-based, human; settings: compared among cell strains
Experimental: as §2

3T3-L1 cells = experiment: PPAR-γ ligand identification test: adipogenesis induction, Oil-Red-O staining; type: cell-based; settings: 10 μM, about 48 hours
Experimental: The ability to induce adipogenesis of the compound PB11 of Example 3 and the compound PB01 of Example 5 was tested to identify whether the compounds PB11 and PB01 had activity of PPAR-γ ligands. 3T3-L1 cells (American Type Culture Collection, Manassas, Va.) were treated with 10 μM of the compounds PB11 or PB01 to induce adipogenesis. 3T3-L1 cells without any treatment, those treated with the same concentration of ciglitazone, and those treated with the same concentration of GW9662 (Cayman, Ann Arbor, Mich.) known as PPAR-γ ligand antagonist were used as control groups. After the induction of adipogenesis for about 48 hours, a degree of adipogenesis was identified by Oil-Red-O staining.
FIG. 1 illustrates the results of imaging degrees of adipogenesis via Oil-Red-O staining after the treatment of 3T3-L1 cells with control compounds and 10 μM of the compounds PB01 or PB11 of Examples 3 and 5 for about 48 hours to induce adipogenesis.

[8] = system: non-small cell lung cancer cell strain H460; experiment: Morphological changes, inverted microscope 200×; type: cell-based, human; settings: 50 μM, 48 hours
Experimental: After the incubation along with 50 μM of the compounds PB01 or PB11 for 48 hours, morphological changes in the non-small cell lung cancer cell strain H460 were observed using an inverted microscope at a magnification of 200×.

SMILES | cell growth inhibitory effect [1] | number of sub-G1 phase cells [2] | number of sub-G1 phase cells [3] | cell growth inhibitory effect [4] | cancer cell growth inhibition [5] | selectivity of cell growth inhibitory effect, cancer versus non-cancer cell strains [6] | growth inhibitory effects on various cancer cell strains [6] | cancer cell growth inhibition [7] | PPAR-γ ligand identification (3T3-L1 cells) | ability to induce adipogenesis (3T3-L1 cells) | morphological changes [8]
COC1CCC(C(=O)Nc2ccc3nc(SCc4c(C)noc4C)sc3c2)CC1 (stereo not drawn) [PB01] | nearly zero | sharp increase | sharp increase | nearly zero | most effective | selectively only on cancer cell strains | prominent | most effective | found to be PPAR-γ ligands | outstanding ability to induce adipogenesis | lose adhesion with reduced density
Cc1noc(C)c1CSc1nc2ccc(NC(=O)C3CCC(=O)CC3)cc2s1 [PB11] |  | sharp increase | sharp increase |  |  | selectively only on cancer cell strains | prominent |  | found to be PPAR-γ ligands | high activity in adipogenesis induction | lose adhesion with reduced density
